Test [1] concerns patients with niacin-induced pruritis. The test can be described thus: Treatment of niacin-induced pruritis with an H-1 blocking agent (Example 6). In kind it is in vivo, human. Particulars: among the seven successful patients; morning dosing (cetrizine, fexofenadine) or evening dosing (diphenhydramine). How it is done: Nine patients with niacin-induced pruritis were treated by recommending an H-1 blocking agent.

Test [2] deals with patients with debilitating flushing on sustained-release niacin therapy. The test can be described thus: Prevention of flushing in patients on sustained-release niacin therapy (Examples 1 and 3). The format is in vivo, human. Particulars: thirteen patients initiating sustained-release niacin; Aspirin 81 mg for prevention of flushing.
For test [3], the system named is patients who developed hyperuricemia while on niacin therapy. The experiment in a line: Hyperuricemia on niacin therapy controlled with allopurinol (Example 7). The following applies: daily dosing 25 to 200 mg to control hyperuricemia.
Protocol: Two females and 15 males were given allopurinol to control the hyperuricemia (daily dosing ranged from 25 to 200 mg).
For test [4], the system named is men with low HDL and coronary artery disease. Particulars: in combination with other lipid medications; HATS trial, N Engl J Med 345:1583-1592; cited from earlier work.

Turning to `CN(C)CCOC(c1ccccc1)c1ccccc1` [diphenhydramine], the “effect on niacin-induced pruritis” value in test [1] is listed as “resolution of pruritis”.
On the same count and under the same terms, under `CC(C)(C(=O)O)c1ccc(C(O)CCCN2CCC(C(O)(c3ccccc3)c3ccccc3)CC2)cc1` (stereo not drawn) [fexofenadine] stands “resolution of pruritis”.
`CC(=O)Oc1ccccc1C(=O)O` [Aspirin]: in test [2], the flushing despite prevention entry is reported as “continued to have debilitating flushing”.
In the case of `Oc1ncnc2[nH]ncc12` [allopurinol], the “continuation of niacin therapy” value in test [3] is reported as “All were able to continue niacin therapy”.
On to `O=C(O)c1cccnc1` [niacin, 3-pyridinecarboxylic acid], for which the “lowering of the incidence of cardiovascular events (heart attacks, strokes, and sudden death)” value in test [4] is given as 60-90%.
Regarding `O=C(O)COCCN1CCN(C(c2ccccc2)c2ccc(Cl)cc2)CC1` (stereo not drawn) [cetrizine], in test [1], the “effect on niacin-induced pruritis” value is recorded as “resolution of pruritis”.

These data come from patent US20100305074A1, “NIACIN-BASED PHARMACEUTICAL COMPOSITIONS” (priority 2007, published 2010).
